How the values were obtained:
[1] = Determination of pKa of formulated lipids (TNS fluorescence assay in lipid nanoparticles); format: physicochemical; conditions: lipid nanoparticles (compound/DSPC/cholesterol/PEG-lipid), lipid formulated in LNP (lipid/DSPC/cholesterol/PEG-lipid), pH at half-maximal intensity
Experimental: As described elsewhere, the pKa of formulated lipids is correlated with the effectiveness of LNPs for delivery of nucleic acids (see Jayaraman et al, Angewandte Chemie, International Edition (2012), 51(34), 8529-8533; Semple et al, Nature Biotechnology 28, 172-176 (2010)). In some embodiments, the preferred range of pKa is ˜5 to ˜7. The pKa of each lipid is determined in lipid nanoparticles using an assay based on fluorescence of 2-(p-toluidino)-6-napthalene sulfonic acid (TNS). Lipid nanoparticles comprising compound of structure (I)/DSPC/cholesterol/PEG-lipid (50/10/38.5/1.5 or 47.5:10:40.7:1.8 mol %) in PBS at a concentration of 0.4 mM total lipid are prepared using the in-line process as described in Example 1. TNS is prepared as a 100 μM stock solution in distilled water. Vesicles are diluted to 24 μM lipid in 2 mL of buffered solutions containing 10 mM HEPES, 10 mM MES, 10 mM ammonium acetate, and 130 mM NaCl, where the pH ranged from 2.5 to 11. An aliquot of the TNS solution is added to give a final concentration of 1 μM and following vortex mixing fluorescence intensity is measured at room temperature in a SLM Aminco Series 2 Luminescence Spectrophotometer using excitation and emission wavelengths of 321 nm and 445 nm. A sigmoidal best fit analysis is applied to the fluorescence data and the pKa is measured as the pH giving rise to half-maximal fluorescence intensity.

[2] = system: luciferase expression in the liver; assay: Luciferase mRNA in vivo evaluation using lipid nanoparticle compositions; design: species or system mice; conditions: LNP with FLuc mRNA, tail vein injection, ng luciferase/g liver 4 hours after administration; for Liver Luc @ 0.3 mg/kg: 0.3 mg mRNA/kg; for Liver Luc @ 1.0 mg/kg: 1.0 mg mRNA/kg
Experimental: (§1) A lipid of structure (I), DSPC, cholesterol and PEG-lipid are solubilized in ethanol at a molar ratio of 50:10:38.5:1.5 or 47.5:10:40.7:1.8. Lipid nanoparticles (LNP) are prepared at a total lipid to mRNA weight ratio of approximately 10:1 to 40:1. Briefly, the mRNA is diluted to 0.2 mg/mL in 10 to 50 mM citrate buffer, pH 4 or 10 to 25 mM acetate buffer, pH 4. Syringe pumps are used to mix the ethanolic lipid solution with the mRNA aqueous solution at a ratio of about 1:5 to 1:3 (vol/vol) with total flow rates above 15 mL/min. The ethanol is then removed and the external buffer replaced with PBS by dialysis. Finally, the lipid nanoparticles are filtered through a 0.2 µm pore sterile filter.
Studies are performed in 6-8 week old female C57BL/6 mice (Charles River) 8-10 week old CD-1 (Harlan) mice (Charles River) according to guidelines established by an institutional animal care committee (ACC) and the Canadian Council on Animal Care (CCAC). Varying doses of mRNA-lipid nanoparticle are systemically administered by tail vein injection and animals euthanized at a specific time point (e.g., 4 hours) post-administration. Liver and spleen are collected in pre-weighed tubes, weights determined, immediately snap frozen in liquid nitrogen and stored at −80° C. until processing for analysis.
For liver, approximately 50 mg is dissected for analyses in a 2 mL FastPrep tubes (MP Biomedicals, Solon OH). ¼″ ceramic sphere (MP Biomedicals) is added to each tube and 500 μL of Glo Lysis Buffer—GLB (Promega, Madison WI) equilibrated to room temperature is added to liver tissue. Liver tissues are homogenized with the FastPrep24 instrument (MP Biomedicals) at 2×6.0 m/s for 15 seconds. Homogenate is incubated at room temperature for 5 minutes prior to a 1:4 dilution in GLB and assessed using SteadyGlo Luciferase assay system (Promega). Specifically, 50 μL of diluted tissue homogenate is reacted with 50 μL of SteadyGlo substrate, shaken for 10 seconds followed by 5 minute incubation and then quantitated using a CentroXS^3 LB 960 luminometer (Berthold Technologies, Germany). The amount of protein assayed is determined by using the BCA protein assay kit (Pierce, Rockford, IL). Relative luminescence units (RLU) are then normalized to total μg protein assayed. To convert RLU to ng luciferase a standard curve is generated with QuantiLum Recombinant Luciferase (Promega).
The FLuc mRNA (L-6107) from Trilink Biotechnologies will express a luciferase protein, originally isolated from the firefly, Photinus pyralis. FLuc is commonly used in mammalian cell culture to measure both gene expression and cell viability. It emits bioluminescence in the presence of the substrate, luciferin. This capped and polyadenylated mRNA is fully substituted with 5-methylcytidine and pseudouridine.
(§2) Representative compounds of the disclosure shown in Table 2 were formulated using the following molar ratio: 50% cationic lipid/10% distearoylphosphatidylcholine (DSPC)/38.5% Cholesterol/1.5% PEG lipid 2-[2-(ω-methoxy(polyethyleneglycol2000)ethoxy]-N,N-ditetradecyl acetamide) or 47.5% cationic lipid/10% DSPC/40.7% Cholesterol/1.8% PEG lipid. Relative activity was determined by measuring luciferase expression in the liver 4 hours following administration via tail vein injection as described in Example 1 or by measuring the amount of human IgG in mouse serum as described in example 2. The activity was compared at a dose of 1.0 or 0.5 or 0.3 mg mRNA/kg and expressed as ng luciferase/g liver measured 4 hours after administration, as described in Example 1 or as μg IgG/mL serum measured 24 hours after administration, as described in Example 2. Compound numbers in Table 2 refer to the compound numbers of Table 1.

human IgG in mouse serum = assay: Immunoglobulin G (IgG) mRNA in vivo evaluation using lipid nanoparticle compositions; design: species or system mice; conditions: LNP with IgG mRNA, tail vein injection, serum 24 hours after administration; for Serum IgG @ 0.3 mg/kg: 0.3 mg mRNA/kg; for Serum IgG @ 1.0 mg/kg: 1.0 mg mRNA/kg
Experimental: as §1
Studies are performed in 6-8 week old CD-1/ICR mice (Envigo) according to guidelines established by an institutional animal care committee (ACC) and the Canadian Council on Animal Care (CCAC). Varying doses of mRNA-lipid nanoparticle are systemically administered by tail vein injection and animals euthanized at a specific time point (e.g., 24 hours) post-administration. The whole blood is collected, and the serum subsequentially separated by centrifuging the tubes of the whole blood at 2000×g for 10 minutes at 4° C. and stored at −80° C. until use for analysis.
For immunoglobulin G (IgG) ELISA (Life Diagnostics Human IgG ELISA kit), the serum samples are diluted at 100 to 15000 folds with 1×diluent solution. 100 μL of diluted serum is dispensed into anti-human IgG coated 96-well plate in duplicate alongside human IgG standards and incubated in a plate shaker at 150 rpm at 25° C. for 45 minutes. The wells are washed 5 times with 1× wash solution using a plate washer (400 μL/well). 100 μL of HRP conjugate is added into each well and incubated in a plate shaker at the same condition above. The wells are washed 5 times again with 1× wash solution using a plate washer (400 μL/well). 100 μL of TMB reagent is added into each well and incubated in a plate shaker at the same condition above. The reaction is stopped by adding 100 μL of Stop solution to each well. The absorbance is read at 450 nm (A450) with a microplate reader. The amount of human IgG in mouse serum is determined by plotting A450 values for the assay standard against human IgG concentration.
as §2

Row | Structure (SMILES) | pKa [1] | Liver Luc @ 0.3 mg/kg [2] | Liver Luc @ 1.0 mg/kg [2] | Serum IgG @ 0.3 mg/kg (human IgG in mouse serum) | Serum IgG @ 1.0 mg/kg (human IgG in mouse serum)
1 | CCCCCCCCCCN(CCCCCCCCCC)C(=O)CCCCCCCN(CCCCCO)CCCCCCCC(=O)N(CCCCCCCCCC)CCCCCCCCCC [Compound I-21, 8,8′-((5-hydroxypentyl)azanediyl)bis(N,N-didecyloctanamide)] | 6.54 | 29492 ± 4887 ng/g | 43216 ± 25636 ng/g | 48.78 ± 6.88 µg/mL | 220.38 ± 62.57 µg/mL
2 | CCCCCCCCCCN(CCCCCCCCCC)C(=O)CCCCCCCN(CCO)CCCCCCCC(=O)N(CCCCCCCCCC)CCCCCCCCCC [Compound I-22, 8,8′-((2-hydroxyethyl)azanediyl)bis(N,N-didecyloctanamide)] | 6.47 | 12829 ± 3326 ng/g | 38933 ± 23162 ng/g | 31.00 ± 9.33 µg/mL | 99.12 ± 18.03 µg/mL
3 | CCCCCCCCCCN(CCCCCCCCCC)C(=O)CCCCCCCN(CCCCO)CCCCCCCC(=O)N(CCCCCCCCCC)CCCCCCCCCC [Compound I-23, 8,8′-((4-hydroxybutyl)azanediyl)bis(N,N-didecyloctanamide)] | 6.48 | 15876 ± 7588 ng/g | 34202 ± 19178 ng/g | 43.34 ± 7.70 µg/mL | 103.91 ± 31.29 µg/mL
4 | CCCCCCCCCCN(CCCCCCCCN(CCCCCO)CCCCCCCCN(CCCCCCCCCC)C(=O)CCCCCCCCC)C(=O)CCCCCCCCC [Compound I-66, N,N′-(((5-hydroxypentyl)azanediyl)bis(octane-8,1-diyl))bis(N-decyldecanamide)] | 6.49 | – | – | 32.06 ± 5.07 µg/mL | 253.37 ± 52.48 µg/mL
5 | CCCCCCCCCCCCN(CCCCCCCCN(C)CCCCCCCCN(CCCCCCCCCCCC)C(=O)CCCCCCCCCCC)C(=O)CCCCCCCCCCC [Compound I-67, N,N′-((methylazanediyl)bis(octane-8,1-diyl))bis(N-dodecyldodecanamide)] | 6.18 | – | – | 7.19 ± 1.41 µg/mL | 62.94 ± 13.88 µg/mL
6 | CCCCCCCCCCCCN(CCCCCCCCN(CCCCCO)CCCCCCCCN(CCCCCCCCCCCC)C(=O)CCCCCCCCCCC)C(=O)CCCCCCCCCCC [Compound I-68, N,N′-(((5-hydroxypentyl)azanediyl)bis(octane-8,1-diyl))bis(N-dodecyldodecanamide)] | 6.41 | – | – | 12.30 ± 2.41 µg/mL | 121.93 ± 34.85 µg/mL
7 | CCCCCCCCCCN(CCCCCCCCN(C)CCCCCCCC(=O)N(CCCCCCCCCC)CCCCCCCCCC)C(=O)CCCCCCCCC [Compound I-73, N-decyl-N-(8-((8-(didecylamino)-8 oxooctyl)(methyl)amino)octyl)decanamide] | 6.32 | – | – | 27.72 ± 6.23 µg/mL | 213.39 ± 18.85 µg/mL
8 | CCCCCCCCCCN(CCCCCCCCN(CCCCCO)CCCCCCCC(=O)N(CCCCCCCCCC)CCCCCCCCCC)C(=O)CCCCCCCCC [Compound I-74, N-decyl-N-(8-((8-(didecylamino)-8-oxooctyl)(5-hydroxypentyl)amino)octyl)decanamide] | 6.53 | – | – | 50.16 ± 6.58 µg/mL | 292.44 ± 40.55 µg/mL
9 | CCCCCCCCCCN(CCCCCCCCCC)C(=O)CCCCCCN(C)CCCCCCC(=O)N(CCCCCCCCCC)CCCCCCCCCC [Compound I-75, 7,7′-(methylazanediyl)bis(N,N-didecylheptanamide)] | 6.48 | – | – | 84.87 ± 12.19 µg/mL | 343.06 ± 42.39 µg/mL
10 | CCCCCCCCCCN(CCCCCCCCCC)C(=O)CCCCCCCN(CCCCCCCC(=O)N(CCCCCCCCCC)CCCCCCCCCC)CCN(C)C [Compound I-77] | 6.71 | – | – | 17.45 ± 2.05 µg/mL | –
11 | CCCCCCCCCCN(CCCCCCCCCC)C(=O)C(F)CCCCCCN(CCCCCO)CCCCCCC(F)C(=O)N(CCCCCCCCCC)CCCCCCCCCC (stereo not shown) [Compound I-82, 8,8′-((5-hydroxypentyl)azanediyl)bis(N,N-didecyl-2-fluorooctanamide)] | 6.47 | – | – | 24.36 ± 4.39 µg/mL | 239.26 ± 39.80 µg/mL
12 | CCCCCCCCCCN(CCCCCCCCCC)C(=O)C(F)CCCCCCN(C)CCCCCCC(F)C(=O)N(CCCCCCCCCC)CCCCCCCCCC (stereo not shown) [Compound I-83, 8,8′-(methylazanediyl)bis(N,N-didecyl-2-fluorooctanamide)] | 6.12 | – | – | 12.94 ± 2.03 µg/mL | 142.26 ± 26.31 µg/mL
13 | CCCCCCCCCCN(CCCCCCCCCC)C(=O)CCCN(CCCCCO)CCCC(=O)N(CCCCCCCCCC)CCCCCCCCCC [Compound I-85, 4,4′-((5-hydroxypentyl)azanediyl)bis(N,N-didecylbutanamide)] | 6.81 | – | – | 10.74 ± 2.79 µg/mL | –

From patent US12129223B2, “Lipids for use in lipid nanoparticle formulations” (Acuitas Therapeutics, Inc., priority 2021, dated 2024)
